Marks after values point to notes of the source that are not given here.
Legend:
[1] = Hyperuricemia model induced by potassium oxonate in mice: serum uric acid; assay type: in vivo, Kunming mice; conditions: 2 h after administration, potassium oxonate 300 mg/kg
Method: The effect of benzofuran amidated derivatives on blood uric acid in mice is evaluated by an animal model of hyperuricemia induced by potassium oxonate
(1) Test animals: Kunming mice are provided by the Test Animals Center of Yangzhou University. Fasting is given 12 h before the drug administration and during the test period, and drinking water is not restricted during the experiment.
The test drug is prepared with 0.5% sodium carboxymethylcellulose (CMC-Na) at a suitable concentration; the normal control group of mice are intraperitoneally injected with 0.5% sodium carboxymethylcellulose, and the other groups are injected intraperitoneally with potassium oxonate 300 mg/kg. 1 h later, the mice in the normal control group and the model group are intraperitoneally injected with 0.5% sodium carboxymethylcellulose, and the other groups are intraperitoneally injected with 10 mL/kg of the test drug. 2 hours after the drug administration, 500 μL of blood is taken from the eyeball, placed at room temperature for 1 h, centrifuged at 3000 rpm for 5 min, and the upper serum is stored at −4° C. The uric acid level in the serum of the mice is determined according to the method as specified the uric acid detection kit.

[2] = tested on: LPS-stimulated macrophage RAW 264.7; assay: Scavenging of superoxide anion in LPS-stimulated macrophage RAW 264.7 (2-OH-E+ by LC-MS); assay type: cell-based; conditions: for Decrease of 2-OH-E+ (%): test drug 10 μM, 0.1 μg/mL LPS, 24 h, RAW 264.7; for scavenging effect on superoxide anion compared to the model group: LPS-stimulated RAW 264.7
Method: The antioxidant activity (the ability to scavenge superoxide anion) of the synthesized benzofuran amidated derivative is evaluated by a cell model.
After phagocytosis of bacteria, senescent denatured cells, immune complexes or oxidized low-density lipoproteins, mammalian macrophages cells enter a functional activation state, with enhanced intracellular lysosomal function and increased ROS levels, and they secrete and synthesize inflammatory cytokines. Lipopolysaccharide (LPS) is the main component of the cell wall of Gram-negative bacteria and is the main material basis for its pathogenesis; it can stimulate the production of monocytes/macrophages and release a large amount of reactive oxygen species (mainly including O2^− and H2O2), inflammatory factors such as nitric oxide (NO), IL-1β and Tumor necrosis factor-α (TNF-α) that are involved in the acute phase response of the body, causing inflammatory damage to the body. The present invention utilizes the LPS-stimulated macrophage model to evaluate the antioxidant activity of benzofuran amidated derivatives to scavenge superoxide anion at the cellular level.
(2) LPS: accurately weigh the appropriate amount of LPS, and prepare a sample stock solution of 0.1 g/ml, with DMEM and store at −20° C. for later use.
(3) Probe Stabilizer DTPA: Weigh accurately the amount of DTPA, prepare a 20 mM sample stock solution with DMSO, dilute to 100 µM with PB, and store at 4° C. for use.
(4) HE: Prepare a 20 mmol/L stock solution by dissolving the probe with dimethyl sulfoxide under anaerobic and dark conditions, and store at −80° C. in the dark. Take it out before use, prepare a 10 μmol/L solution with DMEM, place it on ice and store it in the dark.
(1) RAW 264.7 cells are cultured in Petri dishes (60 mm), 4 mL per dish, and incubated in a 5% CO2 incubator with saturated humidity at 37° C. The experiment is divided into blank group, model group and drug-administered group.
(2) After 12 h of cell culture, the supernatant is discarded, and the test drug with a final concentration of 10 μM containing 0.1 μg/mL LPS medium is added, and two parallel holes are provided for each sample to be tested.
(3) Continue to culture in a cell culture incubator for 24 h, the supernatant is discarded, the cells are washed with PBS, and added to DMEM medium containing the probe HE (10 μM) and cultured in the dark for 30 min.
(4) The cells are then washed twice with ice-cold PBS/(100 μM) DTPA, then added 1 mL PBS/(100 μM) DTPA, before the cells are divided into two with a spatula (700 μL and 300 μL) and collected into EP tubes; then they are centrifuged at 13,000 rpm for 10 min at 4° C., the supernatant is removed, and the cell pellet are stored at −80° C. for future use.
(2) Pretreatment of the sample to be tested: 500 μL acetonitrile is added to each EP tube, protected from light, sonicated (10 s, eight cycles, 100 W), and centrifuged at 12,000 g for 10 min at 4° C. The supernatant is transferred to a 1.5 mL EP tube and dried under vacuum for 1 h to obtain a red dried material; the sample is then re-dissolved with 100 μL of mass spectrometry water, and the internal standard substance galantamine is added to make the final concentration of the sample to be tested at 0.1 μM. The sample to be tested is then centrifuged at 13,000 rpm for 10 min at 4° C. and analyzed by LC-MS.

xanthine oxidase = xanthine oxidase (Homo sapiens (Human), UniProt P47989); assay: Xanthine oxidase inhibitory activity (absorbance at 295 nm, xanthine substrate); assay type: biochemical; conditions: average of four parallel experiments
xanthine oxidase, sequence (P47989 whole entry, species assumed): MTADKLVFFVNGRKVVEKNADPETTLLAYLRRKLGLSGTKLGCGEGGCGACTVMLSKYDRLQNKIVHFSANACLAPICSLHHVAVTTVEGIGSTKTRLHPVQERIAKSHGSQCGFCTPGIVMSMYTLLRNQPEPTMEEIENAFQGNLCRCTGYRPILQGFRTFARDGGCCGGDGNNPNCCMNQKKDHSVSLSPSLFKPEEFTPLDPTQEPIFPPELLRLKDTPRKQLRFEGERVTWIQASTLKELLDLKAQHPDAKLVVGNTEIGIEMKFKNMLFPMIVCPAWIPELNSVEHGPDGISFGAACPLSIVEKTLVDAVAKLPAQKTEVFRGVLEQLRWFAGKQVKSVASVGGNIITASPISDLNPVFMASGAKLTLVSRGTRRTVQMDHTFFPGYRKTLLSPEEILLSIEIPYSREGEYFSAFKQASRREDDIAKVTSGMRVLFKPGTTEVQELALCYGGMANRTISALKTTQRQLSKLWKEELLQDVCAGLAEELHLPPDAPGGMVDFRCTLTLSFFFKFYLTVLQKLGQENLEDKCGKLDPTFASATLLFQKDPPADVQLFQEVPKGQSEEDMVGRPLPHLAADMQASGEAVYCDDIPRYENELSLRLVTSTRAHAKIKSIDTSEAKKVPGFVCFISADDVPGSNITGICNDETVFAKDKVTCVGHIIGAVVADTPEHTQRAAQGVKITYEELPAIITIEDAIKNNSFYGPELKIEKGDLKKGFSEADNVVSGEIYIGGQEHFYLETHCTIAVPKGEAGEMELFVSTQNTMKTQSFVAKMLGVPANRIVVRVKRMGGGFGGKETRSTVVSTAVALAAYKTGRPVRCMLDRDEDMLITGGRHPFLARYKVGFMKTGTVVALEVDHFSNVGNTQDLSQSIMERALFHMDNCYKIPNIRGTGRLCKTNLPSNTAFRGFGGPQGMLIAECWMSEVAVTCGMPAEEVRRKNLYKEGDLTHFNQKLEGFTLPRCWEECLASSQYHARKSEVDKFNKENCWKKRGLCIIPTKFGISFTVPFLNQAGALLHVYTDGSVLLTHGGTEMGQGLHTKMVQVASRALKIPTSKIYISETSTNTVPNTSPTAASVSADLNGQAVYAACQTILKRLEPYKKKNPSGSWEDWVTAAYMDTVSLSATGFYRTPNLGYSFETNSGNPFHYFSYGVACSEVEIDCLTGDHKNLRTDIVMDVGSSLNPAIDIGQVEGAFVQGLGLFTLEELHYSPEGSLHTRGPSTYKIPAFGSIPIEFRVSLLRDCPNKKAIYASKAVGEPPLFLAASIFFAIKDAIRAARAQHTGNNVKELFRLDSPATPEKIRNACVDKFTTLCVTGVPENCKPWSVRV
Method: Determination of Xanthine Oxidase Inhibitory Activity of Aryl Benzofuran Amidated Derivatives and Reagents (Amino Derivatives)
(2) XOD solution: Take 25 U/2.6 mL of XOD, dilute to 0.08 U/mL of XOD working solution with 75 mM PB solution, mix well with a pipette, store on ice for future use;
(3) Substrate preparation: accurately weigh the appropriate amount of xanthine (XA) into 5 mL of 0.1 N NaOH solution, dissolve it ultrasonically, and add 95 mL of 75 mM PB solution to prepare a substrate mother liquor with a final concentration of 0.48 mM, perform vortex mixing for 1 min; it is to be freshly prepared before each experiment;
Use DB to dilute to different concentrations ([…]) before the experiment, and the DMSO content is less than 0.1%.
(§1) Data processing: Data is processed by using Excel analysis and half-inhibitory concentration (IC50) is calculated by using GraphPad Prism 6.0.2.

[3] = DPPH free radical scavenging experiment (antioxidant activity); assay type: biochemical; conditions: average of three parallel experiments; 0.1 mM DPPH, 30 min in the dark, 517 nm
Method: The antioxidant activity of the synthesized benzofuran amidated derivative is evaluated by DPPH free radical scavenging experiment.
(1) Preparation of DPPH solution: accurately weigh the appropriate amount of DPPH, add MeOH and perform ultrasonic dissolution to prepare 10 mM stock solution, and store at −20° C. Dilute to 0.1 mM with MeOH before the experiment and store in the dark;
Use MeOH to dilute to different concentrations ([…]) before the experiment.
as §1

Normal hepatocyte LO2 = assay: Inhibition of uric acid production in xanthine-modelled hepatocyte cell model; assay type: cell-based
Method: The effect of benzofuran amidated derivatives on uric acid production is evaluated using a cell model.
(2) Experimental procedure: Normal hepatocyte LO2 are inoculated in a 6-well plate (plate density 1×10^6 cells/mL), and cell experiments are performed after 4 hours of plating.
(3) Pre-treatment of mass spectrometry: take 100 μL of the medium collected, add MeOH 400 μL, CHCl3 100 μL and H2O 300 μL, perform vortex mixing, and centrifuging at 20000 g for 10 min, then take the upper layer for concentration and dry.

Oc1ncnc2[nH]ncc12 [Allopurinol, reference compound]
Serum uric acid value ([1]; 20 mg/kg intraperitoneal): 3.18 ± 0.50 mg/dL

COC(=O)[C@H](Cc1ccc(O)c(O)c1)NC(=O)/C=C/c1ccc(O)c2oc(-c3ccc(O)c(O)c3)cc12 [Compound 5a, Methyl (S,E)-3-(3,4-dihydroxyphenyl)-2-(3-(2-(3,4-dihydroxyphenyl)-7-hydroxybenzofuran-4-yl)acrylamido)propanoate]
Decrease of 2-OH-E+ (%) [2]: 78.59%

COC(=O)[C@@H](Cc1ccc(O)c(O)c1)NC(=O)/C=C/c1ccc(O)c2oc(-c3ccc(O)c(O)c3)cc12 [Compound 5b]
Decrease of 2-OH-E+ (%) [2]: 74.16% | Serum uric acid value (mg/dl) ([1]; 20 mg/kg intraperitoneal): 3.87 ± 0.31*^a mg/dl | Serum uric acid value ([1]; 40 mg/kg intraperitoneal): 3.61 ± 0.25 mg/dL | Serum uric acid value ([1]; 80 mg/kg intraperitoneal): 3.30 ± 0.46 mg/dL

COC(=O)[C@H](C)NC(=O)/C=C/c1ccc(O)c2oc(-c3ccc(O)c(O)c3)cc12 [Compound 5c, Methyl (E)-(3-(2-(3,4-dihydroxyphenyl)-7-hydroxybenzofuran-4-yl)acryloyl)-L-alaninate]
Decrease of 2-OH-E+ (%) [2]: 60.54%

O=C(/C=C/c1ccc(O)c2oc(-c3ccc(O)c(O)c3)cc12)N[C@H](Cc1ccc(O)c(O)c1)C(=O)O [Compound 6b, (R,E)-3-(3,4-dihydroxyphenyl)-2-(3-(2-(3,4-dihydroxyphenyl)-7-hydroxybenzofuran-4-yl)acrylamido) propanoic Acid]
Decrease of 2-OH-E+ (%) [2]: 80.81%

C[C@H](NC(=O)/C=C/c1ccc(O)c2oc(-c3ccc(O)c(O)c3)cc12)C(=O)O [Compound 6c, (E)-(3-(2-(3,4-dihydroxyphenyl)-7-hydroxybenzofuran-4-yl)acryloyl)-L-alanine]
scavenging effect on superoxide anion compared to the model group [2]: obvious scavenging effect | Decrease of 2-OH-E+ (%) [2]: 41.65%

O=C(/C=C/c1ccc(O)c2oc(-c3ccc(O)c(O)c3)cc12)N[C@@H](Cc1ccccc1)C(=O)O [Compound 6d, (E)-(3-(2-(3,4-dihydroxyphenyl)-7-hydroxybenzofuran-4-yl)acryloyl)-L-phenylalanine]
Decrease of 2-OH-E+ (%) [2]: 81.27%

O=C(/C=C/c1ccc(O)c2oc(-c3ccc(O)c(O)c3)cc12)N[C@@H](Cc1ccc(O)cc1)C(=O)O [Compound 6e, (E)-(3-(2-(3,4-dihydroxyphenyl)-7-hydroxybenzofuran-4-yl)acryloyl)-L-tyrosine]
Decrease of 2-OH-E+ (%) [2]: 83.41% | Serum uric acid value ([1]; 20 mg/kg intraperitoneal): 3.82 ± 0.62 mg/dL | Serum uric acid value ([1]; 40 mg/kg intraperitoneal): 3.54 ± 0.26 mg/dL | Serum uric acid value ([1]; 80 mg/kg intraperitoneal): 3.26 ± 0.44 mg/dL

COC(=O)[C@@H](Cc1ccc(OC)c(OC)c1)OC(=O)/C=C/c1ccc(OC)c2oc(-c3ccc(OC)c(OC)c3)cc12 [Compound 7, (2R)-3-(3,4-dimethoxyphenyl)-1-methoxy-1-oxopropan-2-yl (2E)-3-[2-(3,4-dimethoxyphenyl)-7-methoxy-1-benzofuran-4-yl]prop-2-enoate]
IC50 (xanthine oxidase): > 60 µM | IC50 [3]: > 100 µM

N[C@H](Cc1ccc(O)c(O)c1)C(=O)O [D-dopa]
IC50 (xanthine oxidase): > 60 µM

Cc1nc(-c2ccc(OCC(C)C)c(C#N)c2)sc1C(=O)O [Febuxostat]
inhibition at 5 µM (Normal hepatocyte LO2; Homo sapiens, L02, 5 μM, LO2 cells, 10 μM xanthine, 24 h, read-out: Inhibition rate (%) of uric acid): 78.7%

C[C@H](N)C(=O)O [L-ala]
IC50 (xanthine oxidase): > 60 µM

N[C@@H](CS)C(=O)O [L-cys]
IC50 (xanthine oxidase): > 60 µM

N[C@@H](Cc1ccc(O)c(O)c1)C(=O)O [L-dopa]
IC50 (xanthine oxidase): > 60 µM

CSCC[C@H](N)C(=O)O [L-met]
IC50 (xanthine oxidase): > 60 µM

N[C@@H](Cc1ccccc1)C(=O)O [L-phe]
IC50 (xanthine oxidase): > 60 µM

N[C@@H](Cc1c[nH]c2ccccc12)C(=O)O [L-trp]
IC50 (xanthine oxidase): > 60 µM

N[C@@H](Cc1ccc(O)cc1)C(=O)O [L-tyr]
IC50 (xanthine oxidase): > 60 µM

O=C(/C=C/c1ccc(O)c2oc(-c3ccc(O)c(O)c3)cc12)O[C@H](Cc1ccc(O)c(O)c1)C(=O)O [Salvianolic acid C, reference compound]
IC50 (xanthine oxidase): 8.26 µM | IC50 [3]: 6.87 µM | scavenging effect on superoxide anion compared to the model group [2]: obvious scavenging effect | Decrease of 2-OH-E+ (%) [2]: 37.82% | Inhibition rate (%) of uric acid (Normal hepatocyte LO2; 10 μM, LO2 cells, 10 μM xanthine, 24 h): 15.2% | Inhibition rate (%) of uric acid (Normal hepatocyte LO2; 30 μM, LO2 cells, 10 μM xanthine, 24 h): 24.7% | Inhibition rate (%) of uric acid (Normal hepatocyte LO2; 50 μM, LO2 cells, 10 μM xanthine, 24 h): 31.4% | inhibitory effect on the formation of uric acid in hepatocyte model (Normal hepatocyte LO2; xanthine modeling): significant inhibitory effect

Cc1c(C)c2c(c(C)c1O)CC[C@@](C)(CCC[C@H](C)CCC[C@H](C)CCCC(C)C)O2 [Ve, vitamin E, reference compound]
Decrease of 2-OH-E+ (%) [2]: 53.18%
